Numbered stars: 1 amine (or outer) side, 2 acyl side, 3 side chain; on linkers, the order of the positions; unused ones are H or OH. Bridge positions count the residues as written; N and C are the ends. Side chains are listed from the residue outwards. Peptide text beside a SMILES is read from it. * marks the point of attachment. C20 diacid = O=C(O)CCCCCCCCCCCCCCCCCCC(=O)*; γGlu = O=C(O)[C@H](CCC(=O)[*:2])N[*:1]
Tests used:
[1] = target: T1, human amylin receptor (amylin 3(a) receptor: human calcitonin receptor + RAMP-3) (Homo sapiens, UniProt O60896+P30988); assay: Assay (II)a functional assay, human amylin receptor (CRE luciferase, BHK cells); assay type: cell-based; settings: for EC50: functional assay, human amylin receptor, read-out: hAmylin-R funct. EC50
T1 construct: expressed in transfected cells
T1 sequence (P30988 25-474): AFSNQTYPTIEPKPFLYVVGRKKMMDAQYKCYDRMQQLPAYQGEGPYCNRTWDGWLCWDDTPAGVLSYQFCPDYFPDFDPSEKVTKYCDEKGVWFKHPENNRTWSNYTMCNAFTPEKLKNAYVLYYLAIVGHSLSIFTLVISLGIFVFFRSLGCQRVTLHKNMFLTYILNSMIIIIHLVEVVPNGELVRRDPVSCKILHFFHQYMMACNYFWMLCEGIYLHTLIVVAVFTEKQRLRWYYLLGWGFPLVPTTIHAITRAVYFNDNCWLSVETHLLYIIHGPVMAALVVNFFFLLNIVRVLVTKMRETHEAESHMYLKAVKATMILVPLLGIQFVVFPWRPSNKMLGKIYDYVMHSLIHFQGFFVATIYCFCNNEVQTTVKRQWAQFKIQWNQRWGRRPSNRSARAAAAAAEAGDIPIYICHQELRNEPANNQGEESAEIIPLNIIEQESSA
T1 sequence (O60896 24-148 partner): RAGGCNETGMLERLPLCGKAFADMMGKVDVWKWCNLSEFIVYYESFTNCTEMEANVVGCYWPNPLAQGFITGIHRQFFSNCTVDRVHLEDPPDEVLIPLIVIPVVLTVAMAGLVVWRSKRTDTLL

Wistar rats = assay: Assay (XII) single subcutaneous administration, plasma calcium in rats; assay type: in vivo, rat; settings: for Plasma calcium red (%) 0-12 h: single s.c., maximal reduction 0-12 h, compared to vehicle; for suppression of plasma calcium level relative to vehicle: single subcutaneous, over 24 hours
Protocol: Assay (XII)—Effect from Single Subcutaneous Administration of Analogue on Plasma Calcium in Rats
Male Wistar rats (Taconic Europe, ˜250 g at test date) were acclimatized to handling prior to the study. Rats were divided in groups of five and subcutaneously dosed with test compound at time=0. At time T=−15 min; 1 h, 2 h, 4 h, 7 h, 12 h, and 24 h a blood sample was obtained and heparin stabilized plasma was analysed for total calcium (Cobas, Hitachi). Data are illustrated in graphs as mean±SEM.

[2] = target: T2, human calcitonin receptor (Homo sapiens, UniProt P30988); assay: Assay (VII) binding to the human calcitonin receptor (SPA, 125I-Calcitonin); settings: read-out: hCTR bind IC50;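 note: cell membranes coupled to SPA beads, competitive displacement read by scintillation counting, IC50 derived from a one-site competition fit as a measure of receptor affinity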
T2 construct: expressed in transfected cells
T2 sequence (P30988 25-474): T1 sequence (P30988 25-474)

[3] = target: T2, human calcitonin receptor; assay: Assay (II)a functional assay, human calcitonin receptor (CRE luciferase, BHK cells);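 note: luminescence from a CRE-driven luciferase reporter, read by single photon counting after cells were exposed to test samples for 3 h at 37 °C under 5% CO2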; assay type: cell-based; settings: read-out: hCTR funct. EC50
Sprague-Dawley rats = assay: Assay (XI) single subcutaneous administration, food intake monitored for 48 hours in rats; assay type: in vivo, rat; settings: single subcutaneous 30 nmol/kg
Protocol: Assay (XI)—Effect from Single Subcutaneous Administration of Analogue on […] in Rats
Male Sprague-Dawley rats (Taconic Europe, ˜250 g at test date) were acclimatized to reversed day light cycle (lights on from 10 PM to 10 AM) and single housing in online food intake monitoring system (Ellegaard MBRose, Denmark) prior to study start. Rats were divided in groups of five and subcutaneously dosed with test compound (30 nmol/kg) and food intake was monitored for 48 hours hereafter. Data are illustrated in graphs as mean±SEM.

human amylin receptor = target: T3, human amylin receptor (Homo sapiens, UniProt O60896+P30988); assay: Assay (V) binding to the human amylin receptor (SPA, 125I-rat amylin); settings: for IC50: human amylin receptor membranes, SPA, read-out: hAmylin-R bind IC50
T3 construct: expressed in transfected cells
T3 sequence (P30988 25-474): T1 sequence (P30988 25-474)
T3 sequence (O60896 24-148 partner): T1 sequence (O60896 24-148 partner)
Method in brief: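 IC50, taken as receptor affinity, came from one-site binding competition analysis of scintillation proximity counts. Amylin 3(a)/CRE-luc cell membranes (35 ng/μL final) were mixed with SPA beads (0.05 mg/well) in 50 mM Hepes pH 7.4 containing CaCl2, MgCl2, 0.1% OA and 0.02% Tween20.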

Row | SMILES | EC50 [1] [pM] | Plasma calcium red (%) 0-12 h (Wistar rats; 30 nmol/kg) [%] | suppression of plasma calcium level relative to vehicle (Wistar rats; increasing doses (all doses tested)) | IC50 [2] [pM] | EC50 [3] [pM] | food intake monitored over 48 hours versus vehicle (Sprague-Dawley rats) | IC50 (human amylin receptor) [pM] | suppression of plasma calcium level relative to vehicle (Wistar rats; 30 nmol/kg) | suppression of plasma calcium level relative to vehicle (Wistar rats; 1000 nmol/kg) | Ratio hCT/hAmylin binding (human amylin receptor; Table 7b, human calcitonin receptor binding IC50 divided by human amylin receptor binding IC50) | Ratio hCT/hAmylin binding (human amylin receptor; Table 7c, human calcitonin receptor binding IC50 divided by human amylin receptor binding IC50) | Ratio hCT/hAmylin binding (human amylin receptor; human binding ratio, included for comparison) | Ratio hCT/hAmylin funct. ([1]; Table 6, human functional selectivity (hCTR EC50 / hAmylin-R EC50)) | Ratio hCT/hAmylin funct. ([1]; Table 6a, human functional selectivity (hCTR EC50 / hAmylin-R EC50), at least 5) | Ratio hCT/hAmylin funct. ([1]; Table 6i, hCTR funct. EC50 / hAmylin-R funct. EC50) | Ratio hCT/hAmylin funct. ([1]; Table 6j, hCTR funct. EC50 / hAmylin-R funct. EC50) | Ratio hCT/hAmylin funct. ([1]; Table 6k, hCTR funct. EC50 / hAmylin-R funct. EC50) | Plasma calcium red (%) 0-12 h (Wistar rats; 3 nmol/kg) [%] | suppression of plasma calcium level relative to vehicle (Wistar rats; 3 nmol/kg) | suppression of plasma calcium level relative to vehicle (Wistar rats; 100 and 300 nmol/kg)
1 | CC[C@H](C)[C@H](NC(=O)[C@H](C)NC(=O)CNC(=O)[C@H](Cc1ccccc1)NC(=O)[C@H](CC(N)=O)NC(=O)[C@@H]1CCCN1C(=O)[C@H](CO)NC(=O)[C@H](CO)NC(=O)[C@H](Cc1c[nH]cn1)NC(=O)[C@H](CCCNC(=N)N)NC(=O)[C@H](CC(C)C)NC(=O)[C@H](Cc1ccccc1)NC(=O)[C@H](CC(=O)O)NC(=O)[C@H](C)NC(=O)[C@H](CC(C)C)NC(=O)[C@H](CCCNC(=N)N)NC(=O)[C@H](CCC(N)=O)NC(=O)[C@@H](NC(=O)[C@H](C)NC(=O)[C@@H]1CSSC[C@H](NC(=O)[C@@H](N)CCCCNC(=O)CC[C@H](NC(=O)CC[C@H](NC(=O)CCCCCCCCCCCCCCCCCCC(=O)O)C(=O)O)C(=O)O)C(=O)N[C@@H](CC(N)=O)C(=O)N[C@@H]([C@@H](C)O)C(=O)N[C@@H](C)C(=O)N[C@@H]([C@@H](C)O)C(=O)N1)[C@@H](C)O)C(=O)N1CCC[C@H]1C(=O)N[C@@H](CO)C(=O)N[C@@H](CO)C(=O)N[C@H](C(=O)N[C@@H](CC(N)=O)C(=O)N[C@H](C(=O)NCC(=O)N[C@@H](CO)C(=O)N[C@@H](CCCNC(=N)N)C(=O)N[C@H](C(=O)N[C@@H](Cc1ccc(O)cc1)C(N)=O)[C@@H](C)O)C(C)C)[C@@H](C)O [Example 52, N-ε-1-{(S)-4-carboxy-4-[(S)-4-carboxy-4-(19-carboxynonadecanoylamino)butyrylamino]butyryl}-[Asp14,Arg17,Pro21,Pro27,Arg35]-human amylin] | 340 | 12 | None of the doses trigger a notable suppression of the calcium level | 56900 | 14100 | reduces food intake in rats | 697 |  |  |  |  |  |  |  |  |  |  |  |  | 
2 | CC[C@H](C)[C@H](NC(=O)[C@H](C)NC(=O)CNC(=O)[C@H](Cc1ccccc1)NC(=O)[C@H](CC(N)=O)NC(=O)[C@@H]1CCCN1C(=O)[C@H](CO)NC(=O)[C@H](CO)NC(=O)[C@H](Cc1c[nH]cn1)NC(=O)[C@H](CCCNC(=N)N)NC(=O)[C@H](CC(C)C)NC(=O)[C@H](Cc1ccccc1)NC(=O)[C@H](CCC(=O)O)NC(=O)[C@H](C)NC(=O)[C@H](CC(C)C)NC(=O)[C@H](CCCNC(=N)N)NC(=O)[C@H](CCC(N)=O)NC(=O)[C@@H](NC(=O)[C@H](C)NC(=O)[C@@H]1CSSC[C@H](NC(=O)[C@@H](N)CCCCNC(=O)CC[C@H](NC(=O)CC[C@H](NC(=O)CCCCCCCCCCCCCCCCCCC(=O)O)C(=O)O)C(=O)O)C(=O)N[C@@H](CC(N)=O)C(=O)N[C@@H]([C@@H](C)O)C(=O)N[C@@H](C)C(=O)N[C@@H]([C@@H](C)O)C(=O)N1)[C@@H](C)O)C(=O)N1CCC[C@H]1C(=O)N[C@@H](CO)C(=O)N[C@@H](CO)C(=O)N[C@H](C(=O)N[C@@H](CC(N)=O)C(=O)N[C@H](C(=O)NCC(=O)N[C@@H](CO)C(=O)N[C@@H](CCCNC(=N)N)C(=O)N[C@H](C(=O)N[C@@H](Cc1ccc(O)cc1)C(N)=O)[C@@H](C)O)C(C)C)[C@@H](C)O [Example 89] (H-K([γGlu-γGlu-C20 diacid])CNTATCATQRLAEFLRHSSPNFGAIPSSTNVGSRTY-NH2; disulfide 2-7 (inferred); N-terminus and C-terminus assumed) |  | 7 |  |  |  | reduce food intake in rats |  | None of the example compounds at 30 nmol/kg trigger a notable suppression of the calcium level | more pronounced suppression of the calcium level | 28.0 | 28.0 | 28.0 |  |  |  |  |  |  |  | 
3 | CC[C@H](C)[C@H](NC(=O)[C@H](C)NC(=O)CNC(=O)[C@H](Cc1ccccc1)NC(=O)[C@H](CC(N)=O)NC(=O)[C@@H]1CCCN1C(=O)[C@H](CO)NC(=O)[C@H](CO)NC(=O)[C@H](Cc1c[nH]cn1)NC(=O)[C@H](CCCNC(=N)N)NC(=O)[C@H](CC(C)C)NC(=O)[C@H](Cc1ccccc1)NC(=O)[C@H](CCC(=O)O)NC(=O)[C@H](C)NC(=O)[C@H](CC(C)C)NC(=O)[C@H](CCCNC(=N)N)NC(=O)[C@H](CCC(N)=O)NC(=O)[C@@H](NC(=O)[C@H](C)NC(=O)[C@@H]1CSSC[C@H](NC(=O)[C@@H](N)CCCCNC(=O)CC[C@H](NC(=O)CCCCCCCCCCCCCCCCCCC(=O)O)C(=O)O)C(=O)N[C@@H](CC(N)=O)C(=O)N[C@@H]([C@@H](C)O)C(=O)N[C@@H](C)C(=O)N[C@@H]([C@@H](C)O)C(=O)N1)[C@@H](C)O)C(=O)N1CCC[C@H]1C(=O)N[C@@H](CO)C(=O)N[C@@H](CO)C(=O)N[C@H](C(=O)N[C@@H](CC(N)=O)C(=O)N[C@H](C(=O)NCC(=O)N1CCC[C@H]1C(=O)N[C@@H](CCC(=O)O)C(=O)N[C@H](C(=O)N[C@@H](Cc1ccc(O)cc1)C(N)=O)[C@@H](C)O)C(C)C)[C@@H](C)O [Example 109] (H-K([γGlu-C20 diacid])CNTATCATQRLAEFLRHSSPNFGAIPSSTNVGPETY-NH2; disulfide 2-7) | 161 | 27 |  | 1860 | 841 | reduces food intake in rats | 140 | minor suppression of the calcium level |  |  |  |  | 5.2 | 5.2 | 5.2 | 5.2 | 5.2 | 7 | does not trigger a notable suppression of the calcium level | more pronounced suppression of the calcium level

From US8575091B1, “Amylin analogues and pharmaceutical compositions thereof” (Novo Nordisk A/S, priority 2012, dated 2013)
